Data taken from patent US20220241378A1, “COMPOSITIONS AND METHODS FOR TREATMENT OF CHRONIC GRANULOMATOUS DISEASE” (priority 2019, published 2022).

Key:
[1] = tested on: p47phox-/- mice infected intranasally with A. fumigatus conidia; experiment: Survival of p47phox-/- mice infected intranasally with A. fumigatus conidia; assay type: in vivo
Method: To determine whether Tβ4 ameliorates tissue and immune pathologies in CGD mice the inventors of the present disclosure conducted experiments measuring the effect of Tβ4 in mice with aspergillosis and colitis. Specifically, mice were monitored for fungal growth, antifungal activity of effector cells, survival, lung histopathology, innate and adaptive Th immunity. […] Gross lung pathology and histological examination was conducted on p47phox-/- mice. […] Conversely, Tβ4 deficiency by means of siTβ4 administration promoted lung pathology in C57BL/6 mice (FIG. 10B).
Viable conidia from the A. fumigatus Af293 strain were obtained as described (De Luca et al., 2012). Mice were anesthetized in a plastic cage by inhalation of 3% isoflurane (Forane Abbot) in oxygen before intranasal instillation of 2×10^7 resting conidia/20 μl saline. For survival curves, p47^phox-/- mice were challenged with […] conidia/20 μl saline. […] Fungal burden was determined by qPCR and expressed as conidial equivalents (CE). […] Fungal burden was quantified by qPCR by using the sequences for the multicopy 18S ribosomal DNA gene. […]
GraphPad Prism 6.01 program (GraphPad Software) was used for analysis. Data are expressed as mean ±SD. Statistical significance was calculated by two-way ANOVA (Tukey's or Bonferroni's post hoc test) for multiple comparisons. […] Cell fluorescence intensity was measured by using the ImageJ software.

[2] = tested on: peritoneal polymorphonuclear cells and alveolar macrophages; experiment: Phagocytosis and conidiocidal activity of effector phagocytes pulsed with live Aspergillus conidia; assay type: cell-based, mice; conditions: 10 and 100 nM 1 hour before 2 hours pulsing with conidia (FIG. 4B)
Method: Murine polymorphonuclear cells (PMNs) from C57BL/6 or p47phox-/- uninfected mice were positively selected with magnetic beads (Miltenyi Biotech) from the peritoneal cavity of mice 8 hours after the intraperitoneal injection of 1 ml endotoxin-free 10% thioglycolate solution. On fluorescence-activated cell sorting (FACS) analysis, Gr-1+PMNs were 98% pure and stained positive for the CD11b myeloid marker. Monolayers of plastic-adherent macrophages were obtained, after 2 hours plastic adherence, from lung of C57BL/6 and p47phox-/- uninfected mice. Cells were pre-treated for 1 hour with different concentrations of Tβ4 (10 and 100 nM) before pulsing with A. fumigatus conidia (1:3 cell/fungus ratio for phagocytosis and 10:1 cell/fungus for conidiocidal activity) for 120 min at 37° C. The percentage of CFU inhibition (mean±SD) was determined as described previously (Bellocchio et al., 2004 TLRs govern neutrophil activity in aspergillosis. J Immunol 173:7406-7415).

[3] = tested on: alveolar macrophages from lung of C57BL/6 and p47phox-/- mice; experiment: ROS production by DHR in alveolar macrophages, with or without MitoTEMPO; assay type: cell-based; conditions: 100 nM 1 hour, conidia 2 hours, absence or presence of MitoTEMPO (FIGS. 8C, 8D)
Method: Experiments were also conducted to determine whether Tβ4 increases mitochondrial redox balance. p47phox-/- mice were infected intranasally with A. fumigatus and treated with 5 mg/kg Tβ4. HIF-1α-dependent glycolytic genes were not increased by Tβ4 treatment (FIG. 8A). In contrast, Irg1 expression was increased in mice treated with Tβ4 (FIG. 8B). In addition, ROS production by DHR was measured in C57BL/6 and p47phox-/- mice pre-exposed to 100 nM T134 for 1 hour and pulsed with A. fumigatus conidia for additional 2 hours, in the absence (FIG. 8C) or presence (FIG. 8D) of MitoTEMPO. We could detect the production of mitochondrial ROS induced by Tβ4, thus supporting the hypothesis that mtROS might mediate the regulation of HIF-1α levels by Tβ4. 10 ng/ml PMA was used as a positive control. Fluorescence was measured by a Tecan Infinite 200 fluorimeter. Data are presented as mean ±SD and are representative of two independent experiments. […] RFU, relative fluorescence units.
Alveolar macrophages from lung of C57BL/6 and p47phox-/- uninfected mice were assessed for intracellular ROS production by dihydrorhodamine 123 (DHR) evaluation. […] The DHR was measured by the multifunctional microplate reader Tecan Infinite 200 (Tecan) at different time points. The results expressed as relative fluorescence units (RFU) are the means ±SD of at least two experiments in duplicate.

## Thymosin β4 [Tβ4]
[1]; p47phox-/- mice treated for 5 days (FIG. 9)
  mice survived at the time when all untreated mice had died: more than 50%
[1]; p47phox-/- mice treated for 5 days vs untreated (FIG. 9)
  survival of infected mice: significantly increased
[2]
  fungal killing of effector phagocytes (conidiocidal activity): potentiate
  phagocytosis of effector phagocytes: potentiate
[3]
  production of mitochondrial ROS (DHR): induced
